Patent US10406169B2, “Methods of monitoring estriol therapy” (The Regents of the University of California, priority 2015, dated 2019)

What was measured:
[1] = test system: relapsing-remitting multiple sclerosis; experiment: MRI brain volumes (pairwise Jacobian integration); format: in vivo, human
Description: Mixed effects negative binomial regression model and linear mixed effects model were used to compare enhancing lesion volume (log-transformed) between treatment groups at all follow-ups, and mixed effects logistic model was used to compare the number of subjects positive for gadolinium enhancing lesions. Linear mixed effects model was carried out to compare the percent change in whole gray matter and cortical gray matter between treatment groups. For the exploratory endpoints of EDSS, PASAT, fatigue, depression, quality of life and brain volume measures, linear mixed effects model was used to compare treatment groups at 12 and 24 months.
Dual-echo fast spin echo: TR10000, TE12/95, 50 slices, 1×1×3 mm. Fluid attenuated inversion recovery (FLAIR): TR10380, TE88, TI88, TI2500, 50 slices, 1×1×3 mm. Minor changes were allowed to accommodate different platforms and field strengths at each site. MRI data in Dicom format were fully anonymized prior to transfer and then uploaded to the central MRI reading center database. Prior to study onset, each site provided a dummy scan utilizing the standardized sequences for review by the central MRI reading center to verify scan quality and fidelity. Quality control was maintained at each site using standard procedures for clinical scanners (daily phantoms, stability testing). Quarterly phantoms were collected from 12 of the 15 sites, most using the standard American College of Radiology (ACR) phatom. One site upgraded from a Siemens 1.5T to a 3.0T in November 2013, resulting in the acquisition of one month 24 scan on the new scanner. One site upgraded from a Phillips Achieva 3.0T to a Pillips Intera 3.0T after the first subject completed month 24. All subsequent studies were performed on the Intera.
MRI brain, whole gray matter, whole white matter and cortical gray matter volumes were determined using a pairwise Jacobian integration (PJI) method. Pre-processing for structural T1-weighted images included 1) N3 non-uniformity correction, 2) histogram-based intensity normalization, 3) linear standard space registration using ICBM 2009c nonlinear symmetric template, 4) patch-based brain extraction, and 5) lesion-inpainting. Inputs to PJI were a pair of baseline and follow-up pre-processed structural T1-weighed images. The PJI consisted of 1) linear skull-constrained symmetric registration, 2) halfway transformation and resampling, 3) nonlinear symmetric registration using ANTS, and 4) voxelwise Jacobian determinant calculation on the warp field. Whole gray matter and whole white matter tissue masks were generated by SPM8 Segment function. Additional nonlocal means denoising was applied. For whole brain tissue masks, the whole gray matter and whole white matter masks were combined. For cortical gray matter mask, a standard cortical mask was nonlinearly transformed and merged with gray matter mask. The standard template was the ICBM (ICBM 2009c nonlinear symmetric version), and the nonlinear registration was performed by ANTS. Finally, the Jacobian determinants were averaged within the masks for percent volume change in cortical gray matter, whole gray matter, whole white matter, and whole brain.

[2] = test system: relapsing-remitting multiple sclerosis; experiment: Multiple Sclerosis Functional Composite (PASAT3, 9-hole peg, 25-foot walk); format: in vivo, human; parameters: PASAT3 score, Mean ± SD / PASAT3 score, Median / PASAT3 score change from baseline, Mean ± SD / PASAT3 score change from baseline, Median: scale not given here; 25-foot Walk Time change from baseline, Mean ± SD / 25-foot Walk Time change from baseline, Median: unit not given here
Source text: Tertiary end points included gray matter atrophy on MRI, and changes in results from baseline on questionnaires including the Modified Fatigue Impact Scale, Beck Depression Inventory, and MS Quality of Life. Mixed effects negative binomial regression model and linear mixed effects model were used to compare enhancing lesion volume (log-transformed) between treatment groups at all follow-ups, and mixed effects logistic model was used to compare the number of subjects positive for gadolinium enhancing lesions. Linear mixed effects model was carried out to compare the percent change in whole gray matter and cortical gray matter between treatment groups. […] Mixed effects models were used to assess the association among outcomes and estriol levels at all follow-ups and using subjects in both treatment groups. Mixed effects logistic regression model was used to evaluate the association between the number of enhancing lesions and the occurrence of relapse at all follow-up intervals. Linear mixed effects model was carried out to evaluate the association between PASAT change and percent brain volume change, as well as between PASAT change and estriol levels.

[3] = Baseline to 12 months, all patients
[4] = Baseline to 12 months, all patients, listed as Placebo+GA
[5] = Baseline to 12 months, patients with enhancing lesions at baseline
[6] = Baseline to 12 months, patients without enhancing lesions at baseline
[7] = Baseline to 12 months, patients without enhancing lesions at baseline, listed as Placebo+GA
[8] = Baseline to 24 months, all patients
[9] = Baseline to 24 months, patients with enhancing lesions at baseline
[10] = Baseline to 24 months, patients without enhancing lesions at baseline
[11] = Month 24 (second line, N = 60 / 55)
[12] = Month 24 as printed (first of two lines, N = 70 / 60)
[13] = Patients with baseline score <55, Baseline
[14] = Patients with baseline score <55, Month 12
[15] = Patients with baseline score <55, Month 24

glatiramer acetate [Placebo + GA]
Cortical gray matter baseline volume ([1]; Baseline): 761 ± 42 cc | White matter baseline volume ([1]; Baseline): 640 ± 32 cc | Whole brain baseline volume ([1]; Baseline): 1602 ± 51 cc | Whole gray matter baseline volume ([1]; Baseline): 926 ± 52 cc | Cortical gray matter volume % change, Mean ± SE [1, 3]: −0.74 ± 0.81, % | Cortical gray matter volume % change, median [1, 3]: −0.69% | White matter volume % change, Mean ± SE [1, 3]: −0.21 ± 0.82, % | White matter volume % change, median [1, 3]: −0.15% | Whole brain volume % change, Mean ± SE [1, 3]: −0.49 ± 0.63, % | Whole brain volume % change, median [1, 3]: −0.43% | Whole gray matter volume % change, Mean ± SE [1, 3]: −0.68 ± 0.71, % | Whole gray matter volume % change, median [1, 3]: −0.66% | Cortical gray matter volume % change, Mean ± SE [1, 4]: −0.74% | Whole gray matter volume % change, Mean ± SE [1, 4]: −0.68% | Cortical gray matter volume % change, Mean ± SE [1, 5]: −0.67 ± 0.72, % | Cortical gray matter volume % change, median [1, 5]: −0.69% | White matter volume % change, Mean ± SE [1, 5]: −0.36 ± 1.06, % | White matter volume % change, median [1, 5]: −0.14% | Whole gray matter volume % change, Mean ± SE [1, 5]: −0.65 ± 0.64, % | Whole gray matter volume % change, median [1, 5]: −0.64% | Cortical gray matter volume % change, Mean ± SE [1, 6]: −0.76 ± 0.85, % | Cortical gray matter volume % change, median [1, 6]: −0.73% | White matter volume % change, Mean ± SE [1, 6]: −0.15 ± 0.71, % | White matter volume % change, median [1, 6]: −0.15% | Whole gray matter volume % change, Mean ± SE [1, 6]: −0.70 ± 0.74, % | Whole gray matter volume % change, median [1, 6]: −0.66% | Cortical gray matter volume % change, Mean ± SE [1, 7]: −0.76% | Whole gray matter volume % change, Mean ± SE [1, 7]: −0.70% | Cortical gray matter volume % change, Mean ± SE [1, 8]: −1.05 ± 0.86, % | Cortical gray matter volume % change, median [1, 8]: −0.94% | White matter volume % change, Mean ± SE [1, 8]: −0.52 ± 1.12, % | White matter volume % change, median [1, 8]: −0.54% | Whole brain volume % change, Mean ± SE [1, 8]: −0.77 ± 0.72, % | Whole brain volume % change, median [1, 8]: −0.88% | Whole gray matter volume % change, Mean ± SE [1, 8]: −0.95 ± 0.75, % | Whole gray matter volume % change, median [1, 8]: −0.93% | Cortical gray matter volume % change, Mean ± SE [1, 9]: −0.82 ± 0.80, % | Cortical gray matter volume % change, median [1, 9]: −0.93% | White matter volume % change, Mean ± SE [1, 9]: −0.62 ± 0.97, % | White matter volume % change, median [1, 9]: −0.84% | Whole gray matter volume % change, Mean ± SE [1, 9]: −0.82 ± 0.70, % | Whole gray matter volume % change, median [1, 9]: −0.92% | Cortical gray matter volume % change, Mean ± SE [1, 10]: −1.12 ± 0.88, % | Cortical gray matter volume % change, median [1, 10]: −0.94% | White matter volume % change, Mean ± SE [1, 10]: −0.46 ± 1.17, % | White matter volume % change, median [1, 10]: −0.48% | Whole gray matter volume % change, Mean ± SE [1, 10]: −0.98 ± 0.77, % | Whole gray matter volume % change, median [1, 10]: −0.92% | PASAT3 score, Mean ± SD ([2]; All patients, Baseline): 52.3 ± 9.1 | PASAT3 score, Median ([2]; All patients, Baseline): 56 | PASAT3 score % change from baseline, Mean ± SD ([2]; All patients, Month 12): 0.8 ± 9.9% | PASAT3 score % change from baseline, Median ([2]; All patients, Month 12): 0% | PASAT3 score change from baseline, Mean ± SD ([2]; All patients, Month 12): 0.1 ± 4.5 | PASAT3 score change from baseline, Median ([2]; All patients, Month 12): 0 | PASAT3 score % change from baseline, Mean ± SD ([2]; All patients, Month 24): 2.7 ± 10.3% | PASAT3 score % change from baseline, Median ([2]; All patients, Month 24): 0% | PASAT3 score change from baseline, Mean ± SD ([2]; All patients, Month 24): 1.1 ± 4.3 | PASAT3 score change from baseline, Median ([2]; All patients, Month 24): 0 | 9-Hole Peg Test, Mean ± SD ([2]; Baseline): 19.1 ± 2.7 | 9-Hole Peg Test, Median ([2]; Baseline): 18.8 | 25-foot Walk Time, Median ([2]; Baseline): 4.5 s | MSFC Score, Mean ± SD ([2]; Baseline): 0.06 ± 0.79 | MSFC Score, Median ([2]; Baseline): 0.24 | 25-foot Walk Time, Mean ± SD ([2]; Baseline, in s (unit assumed)): 4.9 ± 1.5 | 9-Hole Peg Test change from baseline, Mean ± SD ([2]; Month 12): −0.1 ± 1.8 | 9-Hole Peg Test change from baseline, Median ([2]; Month 12): −0.4 | MSFC Score change from baseline, Mean ± SD ([2]; Month 12): 0.06 ± 0.38 | 9-Hole Peg Test change from baseline, Mean ± SD ([2]; Month 24): −0.4 ± 1.5 | 9-Hole Peg Test change from baseline, Median ([2]; Month 24): −0.5 | MSFC Score change from baseline, Mean ± SD ([2]; Month 24): 0.09 ± 0.43 | 25-foot Walk Time change from baseline, Mean ± SD [2, 11]: 0.1 ± 1.1 | 25-foot Walk Time change from baseline, Median [2, 11]: 0.1 | 25-foot Walk Time change from baseline, Mean ± SD [2, 12]: 0.0 ± 0.9 | 25-foot Walk Time change from baseline, Median [2, 12]: 0.0 | PASAT3 score, Mean ± SD [2, 13]: 44.7 ± 9.1 | PASAT3 score, Median [2, 13]: 49 | PASAT3 score % change from baseline, Mean ± SD [2, 14]: 4.0 ± 14.0% | PASAT3 score % change from baseline, Median [2, 14]: 3.8% | PASAT3 score change from baseline, Mean ± SD [2, 14]: 1.6 ± 6.0 | PASAT3 score change from baseline, Median [2, 14]: 1.0 | PASAT3 score % change from baseline, Mean ± SD [2, 15]: 6.9 ± 14.7% | PASAT3 score % change from baseline, Median [2, 15]: 9.1% | PASAT3 score change from baseline, Mean ± SD [2, 15]: 3.0 ± 5.9 | PASAT3 score change from baseline, Median [2, 15]: 4.0
